Two molecules from patent US6350909B1, “Methoxymino-phenylacetamide derivatives and their utilization as pesticides” (Bayer Aktiengesellschaft, priority 1998, dated 2002) can be followed below.

Turning to `CON=C(C(=O)NC(=O)CCl)c1ccccc1CO/N=C(\C)c1ccc(C(F)(F)F)cc1` [Example 2, 2-chloro-N-(methoxyimino-{2-[1-(4-trifluoromethylphenyl)-ethylideneaminooxymethyl]-phenyl}-acetyl)-acetamide], the melting point (commonly the temperature, or range, at which the solid turns liquid) is 92 °C (dec.).
Under `COCC(=O)NC(=O)C(=NOC)c1ccccc1CO/N=C(\C)c1ccc(C(F)(F)F)cc1` [Example 1, 2-methoxy-N-(methoxyimino-{2-[1-(4-trifluoromethylphenyl)-ethylideneaminooxymethyl]-phenyl}-acetyl)-acetamide] stands 134 to 138 °C.
